According to article PMC7018746, “An efficient and targeted synthetic approach towards new highly substituted 6-amino-pyrazolo[1,5-a]pyrimidines with α-glucosidase inhibitory activity” (Scientific Reports, 2020):
Where two headings read alike, the source gives them in different places.

Key:
[1] = test system: human pancreatic cancer cell line PANC-1; test: Cytotoxicity studies, PANC-1; format: cell-based; conditions: PANC-1, at concentration of 100 µM
Protocol: (§1) The cytotoxicity of some of potent compounds including 3d, 3m, 3v, and 3af was evaluated through use of the breast cancer cell line MDA-MB-231 and human pancreatic cancer cell line PANC-1.

[2] = Cytotoxicity studies, PANC-1; format: cell-based, human; conditions: human, PANC-1 pancreatic cancer cells
Protocol: as §1

[3] = target: T1, α-glucosidase (Saccharomyces cerevisiae, EC.3.2.1.20) (Saccharomyces cerevisiae, UniProt P53341); test: biochemical; format: biochemical; conditions: for IC50: mean ± SD, at least three experiments, read-out: IC50 (µM), in vitro α-glucosidase inhibitory activity
T1 construct: purchased Sigma-Aldrich
Protocol: α-Glucosidase enzyme (EC3.2.1.20, Saccharomyces cerevisiae, 20 U/mg) and substrate (p-nitrophenyl glucopyranoside) were purchased from Sigma-Aldrich. […] Finally, the change in absorbance was measured at 405 nm by using spectrophotometer (Gen5, Power wave xs2, BioTek, America). DMSO (10% final concentration) and acarbose were used respectively as control and standard drug. The percentage of enzyme inhibitionwas calculated and IC50 values were obtained from non-linear regression curve using the Logit method.

[4] = test system: breast cancer cell line MDA-MB-231; test: Cytotoxicity studies, MDA-MB-231; format: cell-based; conditions: MDA-MB-231, at concentration of 100 µM
Protocol: as §1

[5] = Cytotoxicity studies, MDA-MB-231; format: cell-based; conditions: human, MDA-MB-231 breast cancer cells
Protocol: as §1

α-glucosidase = target: T2, α-glucosidase (Saccharomyces cerevisiae, UniProt P53341); test: Enzyme kinetic studies (Lineweaver-Burk and secondary plots); format: biochemical; conditions: for inhibition type: Lineweaver-Burk plot: Km increased, Vmax unchanged; for Ki: estimated from plot of Km versus inhibitor concentration, read-out: inhibition constant, Ki
T2 construct: purchased Sigma-Aldrich
Protocol: The inhibition mode of the synthesized compounds 3 against α-glucosidase was investigated. […]. The inhibition type was indicated on the basis of Michaelis-Menten and Lineweaver-Burk plots. […] […]. The […] of enzyme solution (1 U/mL) was incubated with different concentrations (0, 5, 10, and 15 µM) of selected compounds for 15 min at 30 °C. The reaction was then started by adding different concentrations of substrate (p-nitrophenyl glucopyranoside, 1-10 mM), and change in absorbance was measured for 20 min at 405 nm by using spectrophotometer (Gen5, Power wave xs2, BioTek, America).

T2 sequence (P53341 whole entry): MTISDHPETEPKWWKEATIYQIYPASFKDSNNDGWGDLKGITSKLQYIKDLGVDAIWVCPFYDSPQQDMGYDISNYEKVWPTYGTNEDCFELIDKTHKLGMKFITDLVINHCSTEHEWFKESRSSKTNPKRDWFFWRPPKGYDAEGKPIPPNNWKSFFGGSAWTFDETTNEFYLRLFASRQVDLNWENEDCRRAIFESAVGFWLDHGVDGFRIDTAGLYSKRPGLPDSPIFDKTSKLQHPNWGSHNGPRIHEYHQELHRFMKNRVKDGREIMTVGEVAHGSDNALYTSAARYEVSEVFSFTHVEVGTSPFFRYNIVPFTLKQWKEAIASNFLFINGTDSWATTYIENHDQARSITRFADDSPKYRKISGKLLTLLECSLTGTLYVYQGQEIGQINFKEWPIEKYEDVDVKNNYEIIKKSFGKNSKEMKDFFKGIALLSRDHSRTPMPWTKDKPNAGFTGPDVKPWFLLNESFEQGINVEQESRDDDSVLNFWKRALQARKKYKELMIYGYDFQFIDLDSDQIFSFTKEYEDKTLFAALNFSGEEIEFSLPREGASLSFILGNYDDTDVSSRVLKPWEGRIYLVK
T1 sequence (P53341 whole entry): as above

melting point | IC50 ([3]; Table 1, compounds 3a-z) | SMILES | cytotoxic activity [1] | IC50 [2] | IC50 ([3]; Table 2, compounds 3aa-ai) | cytotoxic activity [4] | IC50 [5] | inhibition type (α-glucosidase) | Ki (α-glucosidase) | fold more potent than acarbose ([3]; ratio of α-glucosidase IC50 values vs acarbose)
282 to 283 °C | 24.7 ± 1.1 µM | COc1ccc(NC(=O)c2c(Nc3ccccc3)nn3c(-c4ccc(Br)cc4)c(N)c(-c4ccc(C)cc4)nc23)cc1 [3m, 6-Amino-7-(4-bromophenyl)-N-(4-methoxyphenyl)-2-(phenylamino)-5-p-tolylpyrazolo[1,5-a]pyrimidine-3-carboxamide] | did not possess any cytotoxic activity | > 200 µM |  | did not possess any cytotoxic activity | > 200 µM |  |  | 
271 to 273 °C | 17.6 ± 0.6 µM | Cc1ccc(-c2nc3c(C(=O)Nc4ccc(Cl)cc4)c(Nc4ccccc4)nn3c(-c3ccc(Br)cc3)c2N)cc1 [3v, 6-Amino-7-(4-bromophenyl)-N-(4-chlorophenyl)-2-(phenylamino)-5-p-tolylpyrazolo[1,5-a]pyrimidine-3-carboxamide] | did not possess any cytotoxic activity | > 200 µM |  | did not possess any cytotoxic activity | > 200 µM |  |  | 
274 to 276 °C | 19.3 ± 0.9 µM | Nc1c(-c2ccc(Cl)cc2)nc2c(C(=O)Nc3ccc(Cl)cc3)c(Nc3ccccc3)nn2c1-c1cccs1 [3z, 6-Amino-N,5-bis(4-chlorophenyl)-2-(phenylamino)-7-(thiophen-2-yl)pyrazolo[1,5-a]pyrimidine-3-carboxamide] |  |  |  |  |  |  |  | 

SMILES | melting point | IC50 ([3]; Table 1, compounds 3a-z) | cytotoxic activity [1] | IC50 [2] | IC50 ([3]; Table 2, compounds 3aa-ai) | cytotoxic activity [4] | IC50 [5] | inhibition type (α-glucosidase) | Ki (α-glucosidase) | fold more potent than acarbose ([3]; ratio of α-glucosidase IC50 values vs acarbose)
CCOC(=O)c1c(-c2ccccc2)nn2c(-c3ccc(Cl)cc3)c(N)c(-c3ccc(OC)cc3)nc12 [3af, Ethyl 6-amino-7-(4-chlorophenyl)-5-(4-methoxyphenyl)-2-phenylpyrazolo[1,5-a]pyrimidine-3-carboxylate] | 226 to 228 °C |  | did not possess any cytotoxic activity | > 200 µM | 65.5 ± 3 µM | did not possess any cytotoxic activity | > 200 µM | competitive inhibition | 65 µM | 
Cc1ccc(-c2nc3c(C(=O)Nc4ccccc4)c(Nc4ccccc4)nn3c(-c3ccc(Br)cc3)c2N)cc1 [3d, 6-Amino-7-(4-bromophenyl)-N-phenyl-2-(phenylamino)-5-p-tolylpyrazolo[1,5-a]pyrimidine-3-carboxamide] |  | 15.2 ± 0.4 µM | did not possess any cytotoxic activity | > 200 µM |  | did not possess any cytotoxic activity | > 200 µM | competitive inhibition | 12 µM | around 50 fold
